Tests used:
[1] = tested on: Edwardsiella tarda (エドワジエラ・タルダ); experiment: Test Example 1: in vitro antibacterial activity (MIC, Japanese Society of Chemotherapy method); format: cell-based; conditions: oxytetracycline hydrochloride-resistant strains; result in words
[2] = tested on: Edwardsiella tarda E08-18 strain (エドワジエラ・タルダ E08−18株); experiment: Test Example 2: artificial infection treatment test (1) in red sea bream; format: in vivo; conditions: 40 mg (potency)/kg oral in feed, 6 days
[3] = tested on: Edwardsiella tarda E08-18 strain (エドワジエラ・タルダ E08−18株); experiment: Test Example 3: artificial infection treatment test (2) in red sea bream; format: in vivo; conditions: for mortality rate: red sea bream juveniles (27 g), 4.6×10^6 CFU/mL per fish i.p., to day 14 after infection, untreated control 95%

C[C@@H]1O[C@@H]1P(=O)(O)O [ホスホマイシン]
antibacterial activity [1]: 強い抗菌活性を示す
recovery of feeding activity ([2]; red sea bream juveniles, after bacterial inoculation): 摂餌活性の回復が早まる
recovery of feeding activity ([3]; red sea bream juveniles, 40 mg (potency)/kg oral in feed, 6 days, compared with oxytetracycline hydrochloride and untreated groups): 塩酸オキシテトラサイクリンや無投薬の群よりも摂餌活性の回復が早まる

C[C@@H]1O[C@@H]1P(=O)(O)O [ホスホマイシン・カルシウム, カルシウム塩]
mortality rate ([2]; red sea bream juveniles (29 g), 3.6×10^6 CFU/mL per fish i.p., to day 14 after infection, untreated control 95%): 10%
mortality rate ([3]; 40 mg (potency)/kg oral in feed, 6 days): 25%

CN(C)[C@@H]1C(=O)C(C(N)=O)=C(O)[C@@]2(O)C(=O)C3=C(O)c4c(O)cccc4[C@@](C)(O)[C@H]3[C@H](O)[C@@H]12.Cl [塩酸オキシテトラサイクリン]
mortality rate ([3]; 50 mg (potency)/kg oral in feed, 7 days): 100%
